The record followed here is patent publication US20100204112A1, “USE OF TYR-W-MIF-1 AND UROCORTIN 2 AS THERAPEUTIC AGENTS” (priority 2007, published 2010).

Where no end group is shown, it is not given here.

One assay concerns HUVEC. Description: Endothelial tube formation assay. As to conditions: 10 micrograms per ml, 20 hours, combination peptide 1:peptide 2 0.95 mole:1.05 mole.
The subject of a further assay is spleen cells. In words: Th1/Th2 cytokine profiling assay (Ovalbumin-restimulated spleen cells, CBA Kit). In kind it is cell-based, Balb/c mice. As to conditions: 10 micrograms per ml; Ovalbumin restimulation; 72 hours.
The subject of assay [1] is hepatitis B virus (HBV) ayw strain. In words: HBV experimental assay system (HepG2-2.2.15, TaqMan PCR of secreted HBV DNA). The conditions noted are these: 10 micrograms per ml; HepG2-2.2.15 cells; six days; HBV DNA by TaqMan PCR. In kind it is cell-based. The source says: HepG2-2.2.15 is a stable cell line containing the hepatitis B virus (HBV) ayw strain genome (ATCC Cat. No. CRL-11997). Antiviral compounds blocking any late step of viral replication such as transcription, translation, pregenome encapsidation, reverse transcription, particle assembly and release can be identified and characterized using this cell line. In this assay, an active compound will reduce the production of secreted HBV from cells, measured by utilizing real time quantitative PCR (TaqMan) assay to directly and accurately measure HBV DNA copies.
HepG2-2.2.15 cells were plated in 96-well microtiter plates. After 16-24 hours the confluent monolayer of HepG2-2.2.15 cells was washed and the medium was replaced with complete medium containing test peptides—10 micrograms per ml—in duplicate. […] Six days following the initial administration of the peptides, the cell culture supernatants was collected, treated with pronase and DNAse and then used in a real-time quantitative TaqMan PCR assay. The PCR-amplified HBV DNA was detected in real-time by monitoring increases in fluorescence signals that result from the exonucleolytic degradation of a quenched fluorescence probe molecule that hybridizes to the amplified HBV DNA. […] Antiviral activity was calculated from the reduction in HBV DNA levels (% virus control). […]

Another assay has as its system HCMV strain AD169. Description: HCMV plaque formation assay in MRC-5 cells. The conditions noted are these: 10 micrograms per ml, 7-10 days.
The test system of the next assay is RAW 264.7 cells. Description: Phagocytosis assay (Fluorescein-labeled Escherichia coli, flow cytometry). The conditions noted are these: 10 micrograms per ml, combination peptide 1:peptide 2 1.10 mole:0.90 mole. (In general: A flow cytometer gives signals particle by particle.)
Assay [2] concerns Primary Human endothelial cells (HUVEC). Description: Endothelial cell migration assay. As to conditions: 10 micrograms per ml, 22 hours, combination peptide 1:peptide 2 0.95 mole:1.05 mole.
Experimental: Primary Human endothelial cells (HUVEC) were seeded in insert chambers with 3 micrometer pore size of multi-transwell plate for 6 hours at 37° C. in Endothelial Cell Basal Medium (EBM) supplemented with 0.1% bovine serum albumin. Thereafter, designated concentration of testing peptides -10 micrograms per ml—was added in duplicate wells. The endothelia were allowed to migrate for 22 hours at 37° C., then, migrated cells were fixed and stained with Hoechst 33342 dye. Images of 3 fields per insert were taken and the number of migrated cells per field were quantified using the ImageProPlus software. Data were analyzed for the average number of the migrated cells and standard deviation of six data points for each treatment condition. […] Statistic p values were computed using the Student's t-test.
The next assay concerns HIV-1IIIB. In words: HIV-1 antiviral assay in CEM-SS cells (MTS readout).

Experimental for RAW 264.7 cells: RAW 264.7 (Mouse leukaemic monocyte macrophage cell line) cells were obtained from ATCC and grown in RPMI 1640 medium containing 10% FBS. Cells were incubated in 12×75 mm tubes at 37° C. with test peptides—10 micrograms per ml—for 30 min prior to adding Fluorescein-labeled Escherichia coli bacteria as the agent to be ingested. After the cells were incubated for additional 60 min at 37° C. and allowed to ingest the Fluorescein-labeled Escherichia coli bacteria, cells were fixed with 1% paraformaldehyde. The samples were then analyzed by flow cytometry to determine the amount of phagocytosis as a function of brightness (the greater the phagocytic activity, the more fluorescence in the macrophage population). Data are reported as % positive and the mean fluorescence intensity (MFI) of positively stained cells.
Text for spleen cells: The Balb/c mice (originated in 1923, it is a popular strain and is used in many different research disciplines. Also classified as an inbred from the production of 20 or more successive brother-sister matings, the Balb/c mouse is albino and small in size) were immunized on Days 1, 15, and 29 with Ovalbumin (Ovalbumin is the main protein found in egg white, commonly used to stimulate an immunological reaction in test animals) in PBS (5 micrograms/injection). On day 50, spleens of the mice were harvested (3 weeks after last boost with Ovalbumin). […] Thereafter, additional Ovalbumin was added to the cells at 10 micrograms/ml for in vitro restimulation of the cells. 72 hours later, cell supernatants were harvested and assayed using the Becton Dickinson Mouse Th1/Th2 Cytokine CBA Kit. This kit can be used to measure Interleukin-2 (IL-2), Interleukin-4 (IL-4), Interleukin-5 (IL-5), Interferon-γ (IFN-γ), and Tumor Necrosis Factor-α (TNF-α) protein levels in a single sample.

Take “Tyr-Pro-Trp-Gly-NH2 (YPWG-NH2) [Peptide 1]”: the “inhibition of the tube formation of endothelial cells” value in the assay on HUVEC is listed as 40%. In addition, in the assay with spleen cells, the “IFNγ spleen cells; TH1 response (% of control)” value is 62.0 % of control, the “IL-2 spleen cells (% of control)” value was 83.2 % of control, the “IL-4 spleen cells; TH2 response (% of control)” value was 77.4 % of control and the “IL-5 spleen cells; TH2 response (% of control)” value was 57.1 % of control. For the same compound, the “TNF-a spleen cells; TH1 response (% of control)” value in the assay with spleen cells is listed as 82.3 % of control. The “inhibition of HBV replication as compared to the virus control infection” value in assay [1] is 14.7%. Moreover, in the assay on HCMV strain AD169, the “inhibition of HCMV plaque formation as compared to the virus control” value is “did not inhibit”. For the same compound, the “effect on the phagocytic activity of murine macrophages (increase)” value in the assay with RAW 264.7 cells is “no inhibitory or activating effects”. The “inhibition of the migration of human endothelial cells” value in assay [2] is “did not inhibit”.
For the compound “His-Pro-Gly-Ser-Arg-Ile-Val-Leu-Ser-Leu-Asp-Val-Pro-Ile-Gly-Leu-Leu-Gln-Ile-Leu-Leu-Glu-Gln-Ala-Arg-Ala-Arg-Ala-Ala-Arg-Glu-Gln-Ala-Thr-Thr-Asn-Ala-Arg-Ile-Leu-Ala-Arg-Val-NH2 (HPGSRIVLSLDVPIGLLQILLEQARARAAREQATTNARILARV-NH2) [Peptide 2]”, the “inhibition of the tube formation of endothelial cells” value in the assay on HUVEC stood at 35%. For the same compound, in the assay with spleen cells, the “IFNγ spleen cells; TH1 response (% of control)” value is listed as 105.6 % of control, the “IL-2 spleen cells (% of control)” value is reported as 66.8 % of control, the “IL-4 spleen cells; TH2 response (% of control)” value is 68.9 % of control and the “IL-5 spleen cells; TH2 response (% of control)” value is given as 67.0 % of control. In addition, in the assay on spleen cells, the “TNF-a spleen cells; TH1 response (% of control)” value is 125.6 % of control. The “inhibition of HBV replication as compared to the virus control infection” value in assay [1] was “no effect”. Besides, in the assay with HCMV strain AD169, the “inhibition of HCMV plaque formation as compared to the virus control” value is recorded as “did not inhibit”. For the same compound, the “effect on the phagocytic activity of murine macrophages (increase)” value in the assay with RAW 264.7 cells came out at 31.4%. In addition, in assay [2], the “inhibition of the migration of human endothelial cells” value is 15%.
Turning to `Cc1cn([C@H]2C[C@H](N=[N+]=[N-])[C@@H](CO)O2)c(=O)[nH]c1=O` [AZT], in the assay on HIV-1IIIB, the “antiviral activity of positive control compounds (HIV-1)” value is given as “expected levels of antiviral activity”.
Same read-out and setting: then `CC(C)(C)NC(=O)[C@@H]1CN(Cc2cccnc2)CCN1C[C@@H](O)C[C@@H](Cc1ccccc1)C(=O)N[C@H]1c2ccccc2C[C@H]1O` [indinavir], with “expected levels of antiviral activity”.
